Laboratory results published in paper PMC8102479, “Structural and mechanistic insights into the bifunctional HISN2 enzyme catalyzing the second and third steps of histidine biosynthesis in plants” (Scientific Reports, 2021).

Key:
MtHISN2 [1] = molecular target: T1, MtHISN2 (Medicago truncatula, UniProt A0A072U2X9, K109A); test: isothermal titration calorimetry; type: binding
T1 construct: gene MTR_7g084480; N-truncated at Val49 (chloroplast transit peptide removed), residues 49-283, N-terminal Ser-Asn-Ala linker left, His6-tag cleaved with TEV; E. coli BL21 Gold; both PRA-CH and PRA-PH domains
T1 sequence (A0A072U2X9 entry or part of it K109A): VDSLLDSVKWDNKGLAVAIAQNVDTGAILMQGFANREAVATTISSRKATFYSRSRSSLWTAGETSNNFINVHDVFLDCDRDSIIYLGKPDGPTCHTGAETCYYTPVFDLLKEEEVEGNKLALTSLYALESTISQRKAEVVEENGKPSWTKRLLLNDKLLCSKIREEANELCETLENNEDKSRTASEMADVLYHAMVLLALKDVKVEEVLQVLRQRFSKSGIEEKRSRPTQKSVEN
Description: (§1) isothermal titration calorimetry on MtHISN2 | Four mutants within the PRA-CH domain (K109A, T112V, S113A, and H143E)

MtHISN2 [2] = molecular target: T2, MtHISN2 (Medicago truncatula, UniProt A0A072U2X9, S113A); test: isothermal titration calorimetry; type: binding
T2 construct: gene MTR_7g084480; N-truncated at Val49 (chloroplast transit peptide removed), residues 49-283, N-terminal Ser-Asn-Ala linker left, His6-tag cleaved with TEV; E. coli BL21 Gold; both PRA-CH and PRA-PH domains
T2 sequence (A0A072U2X9 entry or part of it S113A): as the sequence (A0A072U2X9 entry or part of it K109A) above, with A61K, S65A counted along it
Description: as §1

MtHISN2 [3] = molecular target: T3, MtHISN2 (Medicago truncatula, UniProt A0A072U2X9, T112V); test: isothermal titration calorimetry; type: binding
T3 construct: gene MTR_7g084480; N-truncated at Val49 (chloroplast transit peptide removed), residues 49-283, N-terminal Ser-Asn-Ala linker left, His6-tag cleaved with TEV; E. coli BL21 Gold; both PRA-CH and PRA-PH domains
T3 sequence (A0A072U2X9 entry or part of it T112V): as the sequence (A0A072U2X9 entry or part of it K109A) above, with A61K, T64V counted along it
Description: as §1

MtHISN2 [4] = molecular target: T4, MtHISN2 (Medicago truncatula, UniProt A0A072U2X9); test: ProFAR formation monitored at […] nm; type: biochemical
T4 construct: gene MTR_7g084480; N-truncated at Val49 (chloroplast transit peptide removed), residues 49-283, N-terminal Ser-Asn-Ala linker left, His6-tag cleaved with TEV; E. coli BL21 Gold; both PRA-CH and PRA-PH domains
T4 sequence (A0A072U2X9 entry or part of it): as the sequence (A0A072U2X9 entry or part of it K109A) above, with A61K counted along it

MtHISN2 [5] = molecular target: T5, MtHISN2 (Medicago truncatula, UniProt A0A072U2X9, R183E); test: isothermal titration calorimetry; type: binding
T5 construct: gene MTR_7g084480; N-truncated at Val49 (chloroplast transit peptide removed), residues 49-283, N-terminal Ser-Asn-Ala linker left, His6-tag cleaved with TEV; E. coli BL21 Gold; both PRA-CH and PRA-PH domains
T5 sequence (A0A072U2X9 entry or part of it R183E): as the sequence (A0A072U2X9 entry or part of it K109A) above, with A61K, R135E counted along it
Procedure: (§2) isothermal titration calorimetry on MtHISN2 | three within the PRA-PH domain (R183E, T197V, and Y240T) were tested

MtHISN2 [6] = molecular target: T6, MtHISN2 (Medicago truncatula, UniProt A0A072U2X9, T197V); test: isothermal titration calorimetry; type: binding
T6 construct: gene MTR_7g084480; N-truncated at Val49 (chloroplast transit peptide removed), residues 49-283, N-terminal Ser-Asn-Ala linker left, His6-tag cleaved with TEV; E. coli BL21 Gold; both PRA-CH and PRA-PH domains
T6 sequence (A0A072U2X9 entry or part of it T197V): as the sequence (A0A072U2X9 entry or part of it K109A) above, with A61K, T149V counted along it
Procedure: as §2

MtHISN2 [7] = molecular target: T7, MtHISN2 (Medicago truncatula, UniProt A0A072U2X9, Y240T); test: isothermal titration calorimetry; type: binding
T7 construct: gene MTR_7g084480; N-truncated at Val49 (chloroplast transit peptide removed), residues 49-283, N-terminal Ser-Asn-Ala linker left, His6-tag cleaved with TEV; E. coli BL21 Gold; both PRA-CH and PRA-PH domains
T7 sequence (A0A072U2X9 entry or part of it Y240T): as the sequence (A0A072U2X9 entry or part of it K109A) above, with A61K, Y192T counted along it
Procedure: as §2

MtHISN2 [8] = molecular target: T4, MtHISN2; test: isothermal titration calorimetry; type: binding
MtHISN2 [9] = molecular target: T8, MtHISN2 (Medicago truncatula, UniProt A0A072U2X9, H143E); test: isothermal titration calorimetry; type: binding
T8 construct: gene MTR_7g084480; N-truncated at Val49 (chloroplast transit peptide removed), residues 49-283, N-terminal Ser-Asn-Ala linker left, His6-tag cleaved with TEV; E. coli BL21 Gold; both PRA-CH and PRA-PH domains
T8 sequence (A0A072U2X9 entry or part of it H143E): as the sequence (A0A072U2X9 entry or part of it K109A) above, with A61K, H95E counted along it

[10] = molecular target: HISN2 enzyme from Medicago truncatula (MtHISN2), construct N-truncated at Val49 (Medicago truncatula); test: SEC; HiLoad Superdex 200 16/60; 25 mM Hepes-NaOH pH 7.5, 100 mM KCl, 50 mM NaCl, 100 uM ZnCl2, 1 mM TCEP; elution profile not shown

Nc1ncnc2c1ncn2[C@@H]1O[C@H](COP(=O)(O)O)[C@@H](O)[C@H]1O [AMP]
Kd (MtHISN2 [1]): 71 ± 18 µM
Kd (MtHISN2 [2]): 64 ± 12 µM
Kd (MtHISN2 [3]): 75 ± 8 µM
inhibition at 100 µM (MtHISN2 [4]): > 60%
Kd (MtHISN2 [5]): 31 ± 3 µM
Kd (MtHISN2 [6]): 29 ± 3 µM
Kd (MtHISN2 [7]): 52 ± 9 µM
Kd (MtHISN2 [8]): 47 ± 6 µM
Kd (MtHISN2 [9]): 68 µM

HISN2 enzyme from Medicago truncatula (MtHISN2), construct N-truncated at Val49
stoichiometry N [10]: 2
